{"source": "PubChem BioAssay AID602120", "about": "(Johns Hopkins Ion Channel Center, 2011)", "molecular_target": "Potassium voltage-gated channel subfamily KQT member 1 (Homo sapiens) (UniProt P51787)", "sequence (P51787 whole entry, looked up)": "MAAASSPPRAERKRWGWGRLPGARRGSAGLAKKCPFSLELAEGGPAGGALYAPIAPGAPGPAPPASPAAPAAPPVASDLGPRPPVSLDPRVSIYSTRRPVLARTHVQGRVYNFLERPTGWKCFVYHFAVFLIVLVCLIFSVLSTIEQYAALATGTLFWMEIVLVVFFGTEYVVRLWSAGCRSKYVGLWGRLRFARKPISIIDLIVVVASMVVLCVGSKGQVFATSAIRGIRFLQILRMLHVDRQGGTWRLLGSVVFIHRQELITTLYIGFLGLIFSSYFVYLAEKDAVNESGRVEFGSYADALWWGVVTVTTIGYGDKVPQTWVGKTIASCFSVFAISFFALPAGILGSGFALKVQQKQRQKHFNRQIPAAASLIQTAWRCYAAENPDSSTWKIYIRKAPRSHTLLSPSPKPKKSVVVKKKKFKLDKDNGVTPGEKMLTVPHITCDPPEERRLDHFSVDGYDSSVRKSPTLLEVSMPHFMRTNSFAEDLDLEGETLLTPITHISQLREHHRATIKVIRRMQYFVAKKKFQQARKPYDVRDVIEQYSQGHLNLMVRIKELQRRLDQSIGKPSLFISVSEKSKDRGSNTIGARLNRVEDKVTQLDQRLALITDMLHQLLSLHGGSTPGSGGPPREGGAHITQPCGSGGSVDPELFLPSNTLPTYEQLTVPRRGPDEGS", "assay": "PubChem AID 602120", "details": "KCNQ1-CHO cells, manual whole-cell patch clamp current; at 0.3 µM; stronger effect = higher value", "data": [{"molecule": "COc1ccc(-c2csc(NC(=O)[C@H]3CCCCN3S(=O)(=O)c3ccc(C)cc3)n2)cc1", "values": [{"measurement": "fold activation", "result": 46.9}]}]}
